Experimental findings from patent publication US20240374564A1, “NOVEL SEROTONIN DERIVATIVES AND THEIR USES FOR TREATING IRON-ASSOCIATED DISORDERS” (priority 2021, published 2024) are described below.

The structures appear in SMILES notation.

The subject of one test is Hamp KO mice. The test is described as follows: Model 3 Hamp KO mice: iron overload. Type of test: in vivo, mouse. The source says:
Hepcidin, encoded by the HAMP gene, is the main regulator of iron homeostasis, and its expression is tightly regulated by signals including iron levels, erythropoietic activity, hypoxia, and inflammation.
It is a mouse model of hemochromatosis. Hepcidin deficient mice progressively develop multivisceral iron overload; plasma iron overcomes transferrin binding capacity, and nontransferrin-bound iron accumulates in various tissues including pancreas and heart (see Nicolas et al., PNAS 2001, 98 (15), 8780-8785).
Mouse model of iron overload without ineffective erythropoiesis (Hamp KO) received intraperitoneal (Ip) injection of A3 derivatives or serotonin starting on day 0.
(§1) On day 5, the animals were sacrificed and histology of their organs and iron measurement in organs was carried out.

The subject of test [1] is Tph1 KO mice. Briefly: Model 2 Tph1 KO mice, first round: red blood cells production and iron overload. Type of test: in vivo, mouse. To be noted: for anemic phenotype / RBC count / hemoglobin / hematocrit contents / heme content in red blood cells / mean cellular volume (MCV): Ip injection; for RBC count: day 1 to 5, FIG. 2A; for hemoglobin: day 1 to 5, FIG. 2B; for hematocrit contents: day 1 to 5, FIG. 2C; for heme content in red blood cells: day 1 to 5, FIG. 2D; for mean cellular volume (MCV): day 1 to 5, FIG. 2E; for iron content in spleen / iron content in bone marrow: day 5 after sacrifice; for iron content in spleen: FIG. 2F; for iron content in bone marrow: FIG. 2G.
Text: (§2) This model is a peripheral serotonin deficient mice. It is a mouse model of low risk myelodysplastic syndrome, with ineffective erythropoiesis, light anemia, iron overload (spleen), abnormal red blood cells and apoptosis of proerythroblasts (see Côté et al., PNAS, 2003, 100 (23), 13525-13530).
(§3) Mouse models Tph1 KO with ineffective erythropoiesis and iron overload received intraperitoneal (Ip) injection of A1, A3, A4 derivatives or serotonin starting on day 0.
(§4) In a first round of experiments, a complete red blood cells count (RBC) was achieved on day 1, day 2 and day 5.
as §1

In test [2] the test system is skin fibroblasts from FA/BPAN patients. The test is described as follows: Western blot analysis of skin fibroblasts from FA/BPAN patients treated with ferric ammonium citrate. The class given is cell-based, human. To be noted: iron overload (FAC 100 uM). The method, then: Further tests were carried out on skin fibroblasts from Friedreich ataxia and Beta-propeller protein-associated neurodegeneration (BPAN) patients, to assess in particular the effects of the compounds of the invention on iron accumulation in both the cytosol and mitochondria of said fibroblasts.
Cultured skin fibroblasts from Friedreich ataxia patients were used as described in Petit et al., Blood. 2021; 137 (15): 2090-2102 and Ingrassia et al., Front Genet 2017 Feb. 17; 8:18.

For test [3], the system named is Tph1 KO mice. Briefly: Model 2 Tph1 KO mice, second round: iron distribution, FACS, ferritin. Type of test: in vivo, mouse. Also on record: condition of the mice compared with controls: dose or concentration left out as unconfirmed.
Text: as §2, §3
(§5) In a second round of experiments, a complete red blood cells count (RBC) was achieved on day 2 day 5, day 10, day 15, day 20, day 25 and day 30. 4 mice were sacrificed on day 5 and every 5 days afterward for toxicity tests, Flow Cytometry Analysis and FACS (fluorescence-activated single cell sorting) essentially on bone marrow and spleen, biochemical analysis, iron status (organs, serum and urines), and histology.

Test [4] relates to Hbb^Th1/th1 mice. The test is described as follows: Model 1 Hbb^Th1/th1 mice, second round: FACS, RBC, body iron, urinary ferritin. Type of test: in vivo, mouse. Also on record: condition of the mice compared with control: dose or concentration left out as unconfirmed.
Text: (§6) Hbb^th1/th1 mice carry a 3.7-kb homozygous spontaneous deletion that eliminates the Hemoglobin Subunit Beta (HBB) gene and 2 kb of the 5′ flanking region, including the promoter. On the basis of genetic and hematological criteria, these mice constitute the first animal model of beta-thalassemia.
(§7) Mouse models Hbb^Th1/Th1 with ineffective erythropoiesis and iron overload received intraperitoneal (Ip) injection of A1 or A3 derivatives starting on day 0.
as §5
ProE and Ebaso are part of phases I-II, EBaso and LBaso are part of phases III-IVa, Poly and Ortho are part of phases IVb-V of cells differentiation. The mature stage is also called “acido”.

Test [5] has as its system cells from beta-thalassemic patients. Briefly: FACS analysis in cells from beta-thalassemic patients. The class given is cell-based, human. To be noted: cells from beta-thalassemic patients (n=3), FIG. 8D. The protocol:
In vitro tests were carried out on cells derived from blood of β-thalassemic patients before transfusion

Test [6] relates to Hbb^Th1/th1 mice. The test is described as follows: Model 1 Hbb^Th1/th1 mice, first round: red blood cells production and iron overload. The class given is in vivo, mouse. To be noted: for RBC count / hemoglobin / hematocrit contents: Ip injection; for RBC count: day 1 to 5, FIG. 1A; for hemoglobin: day 1 to 5, FIG. 1B; for hematocrit contents: day 1 to 5, FIG. 1C; for iron content in bone marrow / iron content in spleen: day 5 after sacrifice, FIG. 1D.
Text: as §6, §7, §4, §1

[7] abbreviates: 5-HT deficient (Tph1 KO) mice, vs PBS.
Setting [8] is: Hbb^Th1/th1 mice, flow cytometry, day 13, vs PBS-treated mice.
The mark [9] stands for this setting: Hbb^th1/th1 mice, 21 days of injection, FIG. 5C.

In the case of `NCCc1c[nH]c2ccc(O)cc12` [serotonin, 5-hydroxytryptamine], in the test on Hamp KO mice (day 5, FIG. 3A), the “iron level in the blood” value is reported as “reduced”. The transferrin saturation result with Hamp KO mice (day 5, FIG. 3C) is “reduced”. In the test on Tph1 KO mice [1], the anemic phenotype result is recorded as “ameliorate the anemic phenotype”, the RBC count result was “improved”, the hemoglobin result was “improved” and the hematocrit contents entry is listed as “improved”. Further, in the test with Tph1 KO mice [1], the “heme content in red blood cells” value is recorded as “improved”, the “mean cellular volume (MCV)” value was “decrease”, the “iron content in spleen” value is “mobilized out of the spleen” and the “iron content in bone marrow” value is “relocate into cells of the bone marrow”.

Consider `C#CCN(CC#C)CCc1c[nH]c2ccc(O)cc12` [Derivative A4, 3-(2-(di(prop-2-yn-1-yl)amino)ethyl)-1H-indol-5-ol], for which, in the test with Tph1 KO mice [1], the anemic phenotype entry is “ameliorate the anemic phenotype”, the RBC count result is reported as “improved”, the hemoglobin result is “improved” and the hematocrit contents entry is “improved”. In the test on Tph1 KO mice [1], the “heme content in red blood cells” value is “improved”, the “mean cellular volume (MCV)” value is “decrease”, the “iron content in spleen” value is reported as “mobilized out of the spleen” and the “iron content in bone marrow” value is reported as “relocate into cells of the bone marrow”.

`C#CCNCCc1c[nH]c2ccc(O)cc12.O=CO` [Derivative A3, N-(2-(5-hydroxy-1H-indol-3-yl)ethyl)prop-2-yn-1-aminium formate]: the “iron level in the liver” value in the test on Hamp KO mice (day 5, FIG. 3B) is listed as “reduced”. Besides, the “increased p62 expression” value in test [2] (FIG. 9B) is recorded as about 60%. Besides, the “decreased FTH expression” value in test [2] (FIGS. 9A-9B) is on record as about 40%. In the test with Tph1 KO mice [3] (setting [7]), the cell blood survival entry is recorded as “increased” and the erythroid expansion entry is reported as “restored”. Moreover, in the test with Tph1 KO mice [3] (Tph1 KO mice, 5 days of treatment, vs non-treated, FIG. 7A), the cellular iron misdistribution entry is given as “corrects cellular iron misdistribution”. Also, the cellular iron misdistribution result in the test on Tph1 KO mice [3] (Tph1 KO mice, 21 days of IP injection, vs PBS, FIG. 7B) is given as “corrects cellular iron misdistribution”. For the same compound, the “pathological features of ineffective erythropoiesis” value with Tph1 KO mice [3] (Tph1 KO mice, 21 days, FIG. 7C) was “corrects”. Besides, the “iron overload (ferritin level)” value in the test with Tph1 KO mice [3] (Tph1 KO mice, 21 days, bone marrow, FIG. 7C) is reported as “decrease iron overload”. In addition, the “condition of the mice compared with controls” value in the test with Tph1 KO mice [3] (Tph1 KO mice, IP for 5 and 21 days) is recorded as “improved condition of the mice”. In the test with Hbb^Th1/th1 mice [4] (Hbb^Th1/Th1 mice, vs PBS), the cell survival entry is listed as “increased”, the erythroid expansion entry is on record as “restored” and the maturation arrest result is listed as “stopped”. In addition, the “condition of the mice compared with control” value with Hbb^Th1/th1 mice [4] (Hbb^Th1/th1 mice, Ip for 13 and 21 days, vs PBS) is “improved condition of the mice”. Also, in the test on Hbb^Th1/th1 mice [4] (Hbb^Th1/th1 mice, conclusion from flow cytometry), the “pathological features of β-thalassemia” value is “corrects pathological features of β-thalassemia”. Also, the urinary ferritin levels entry in the test on Hbb^Th1/th1 mice [4] (Hbb^Th1/th1 mice, day 13, vs control mice, FIG. 5D) is reported as “significant increase”. Besides, in the test with Hbb^Th1/th1 mice [4] (setting [8]), the “percentage Ter-119+CD71+FSC cells (III-IVa) in bone marrow” value is “decrease”; the “percentage and absolute number of Ter-119+CD71−FSC cells (IVb-V) in bone marrow” value is listed as “increase”. Besides, the bone marrow expansion result in the test with Hbb^Th1/th1 mice [4] (Hbb^th1/th1 mice, 13 days of injection, FIG. 5A) is “correction of bone marrow expansion”. In addition, the “iron overload (total body iron content)” value with Hbb^Th1/th1 mice [4] (Hbb^th1/th1 mice, 13 days of injection, FIG. 5B) is “decrease in iron overload”. The “ratio immature/mature erythroblasts (Ratio Poly/Acido)” value in the test on Hbb^Th1/th1 mice [4] (Hbb^th1/th1 mice, 21 days of injection) is “restores”. In the test on Hbb^Th1/th1 mice [4] (setting [9]), the “iron overload (total body iron content)” value is listed as “decrease iron overload”, the “number of erythroid progenitors” value is “Decrease” and the “number of mature erythroid cells” value is recorded as “Increase”. Also, in test [5], the “differentiation of erythroid progenitors” value was “increases differentiation of erythroid progenitors” and the immature/mature ratio entry is recorded as “decrease”. In addition, in the test on Hbb^Th1/th1 mice [6], the RBC count result was “improved”, the hemoglobin entry is listed as “improved”, the hematocrit contents result is “improved” and the “iron content in bone marrow” value was “relocate into cells of the bone marrow”. For the same compound, the “iron content in spleen” value in the test on Hbb^Th1/th1 mice [6] is reported as “decreased the iron overload in spleen”. Further, in the test on Tph1 KO mice [1], the anemic phenotype result was “ameliorate the anemic phenotype”, the RBC count result is “improved”, the hemoglobin result is given as “improved” and the hematocrit contents entry is recorded as “improved”. In the test on Tph1 KO mice [1], the “heme content in red blood cells” value is recorded as “improved”, the “mean cellular volume (MCV)” value was “decrease”, the “iron content in spleen” value is “mobilized out of the spleen” and the “iron content in bone marrow” value is given as “relocate into cells of the bone marrow”.

In the case of `C#CCOc1ccc2[nH]cc(CCN(CC#C)CC#C)c2c1` [Derivative A1, N-(prop-2-yn-1-yl)-N-(2-(5-(prop-2-yn-1-yloxy)-1H-indol-3-yl)ethyl) prop-2-yn-1-amine], in the test with Hbb^Th1/th1 mice [6], the RBC count entry was “improved”, the hemoglobin entry is reported as “improved”, the hematocrit contents result is “improved” and the “iron content in bone marrow” value is on record as “relocate into cells of the bone marrow”. Also, the “iron content in spleen” value in the test with Hbb^Th1/th1 mice [6] is “decreased the iron overload in spleen”.
